Experimental data taken from patent publication US20040102431A1, “Substituted amino-aza-cycloalkanes useful against malaria” (priority 2000, published 2004).
Where two headings read alike, the source gives them in different places.

Target: plasmepsin II (Plasmodium falciparum, UniProt P46925)
Assay: biochemical
[1] = […], FRET, pH 5, 37° C., 40 min, substrate 1 μM, read-out: IC50 (nM) on plasmepsin II
[2] = Additional Examples table, FRET, pH 5, 37° C., 40 min, substrate 1 μM, read-out: IC50 (nM) on plasmepsin II

Sequence of plasmepsin II (P46925 125-453): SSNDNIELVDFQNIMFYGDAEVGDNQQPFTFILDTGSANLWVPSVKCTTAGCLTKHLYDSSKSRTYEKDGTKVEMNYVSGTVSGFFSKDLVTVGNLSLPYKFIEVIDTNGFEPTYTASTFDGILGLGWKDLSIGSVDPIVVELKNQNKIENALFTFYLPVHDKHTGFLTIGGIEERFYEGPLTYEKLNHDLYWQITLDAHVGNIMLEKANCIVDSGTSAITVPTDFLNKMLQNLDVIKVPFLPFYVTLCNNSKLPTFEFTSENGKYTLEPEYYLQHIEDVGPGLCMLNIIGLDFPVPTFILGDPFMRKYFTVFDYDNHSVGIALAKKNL

SMILES | IC50 [2] | IC50 [1] | other results
CCCCCc1ccc(CN(Cc2ccc(-c3ccccc3)cc2)C2CCCN(Cc3ccccc3)CC2)cc1 (racemic) [Example 34] |  | 1970 nM | 
CCCCCc1ccc(C(=O)N(Cc2ccc(-c3ccccc3)cc2)C2CCCN(Cc3ccccc3)CC2)cc1 (racemic) [Example 35] |  | 1700 nM | 
CCCCCc1ccc(C(=O)N(Cc2ccc(OCc3ccccc3)cc2)C2CCN(Cc3ccccc3)CC2)cc1 [Example 1] |  | 70 nM | 
CCCCCc1ccc(C(=O)N(CCCc2ccccc2)C2CCN(Cc3ccccc3)CC2)cc1 [Example 2] |  |  | IC50: 1500 nM
CCCCOc1ccc(C(=O)N(Cc2ccc(OCc3ccccc3)cc2)C2CCN(Cc3ccccc3)CC2)cc1 [Example 3] |  | 1700 nM | 
CCCCCCCCCCCC(=O)N(Cc1ccc(OCc2ccccc2)cc1)C1CCN(Cc2ccccc2)CC1 [Example 6] |  | 1800 nM | 
CCCCCc1ccc(C(=O)N(Cc2ccc(Oc3ccccc3)cc2)C2CCN(Cc3ccccc3)CC2)cc1 [Example 7] |  | 462 nM | 
CCCCCCCCCCCC(=O)N(Cc1ccc(Oc2ccccc2)cc1)C1CCN(Cc2ccccc2)CC1 [Example 9] |  | 1700 nM | 
CCCCCc1ccc(C(=O)N(Cc2ccc(OCc3ccccc3)c(OCc3ccccc3)c2)C2CCN(Cc3ccccc3)CC2)cc1 [Example 10] |  | 1200 nM | 
CCCCOc1ccc(C(=O)N(Cc2ccc(OCc3ccccc3)c(OCc3ccccc3)c2)C2CCN(Cc3ccccc3)CC2)cc1 [Example 11] |  | 3200 nM | 
CCCCCCCCCCCC(=O)N(Cc1ccc(OCc2ccccc2)c(OCc2ccccc2)c1)C1CCN(Cc2ccccc2)CC1 [Example 13] |  | 2400 nM | 
CCCCCc1ccc(C(=O)N(Cc2ccc(-c3ccccc3)cc2)C2CCN(Cc3ccccc3)CC2)cc1 [Example 14] |  | 84 nM | 
CCCCOc1ccc(C(=O)N(Cc2ccc(-c3ccccc3)cc2)C2CCN(Cc3ccccc3)CC2)cc1 [Example 15] |  | 1300 nM | 
CCCCCCCCCCCC(=O)N(Cc1ccc(-c2ccccc2)cc1)C1CCN(Cc2ccccc2)CC1 [Example 16] |  | 1300 nM | 
CCCCCc1ccc(C(=O)N(Cc2ccc(C(F)(F)F)cc2)C2CCN(Cc3ccccc3)CC2)cc1 [Example 18] |  | 148 nM | 
CCCCCc1ccc(C(=O)N(Cc2ccc(OCc3ccccc3)c(OC)c2)C2CCN(Cc3ccccc3)CC2)cc1 [Example 22] |  | 793 nM | 
CCCCCc1ccc(C(=O)N(Cc2ccc(CCCC)cc2)C2CCN(Cc3ccccc3)CC2)cc1 [Example 24] |  | 427 nM | 
CCCCCc1ccc(C(=O)N(Cc2ccc(OCCCC)cc2)C2CCN(Cc3ccccc3)CC2)cc1 [Example 25] |  | 220 nM | 
CCCCCc1ccc(CN(C(=O)c2ccc(CCCCC)cc2)C2CCN(Cc3ccccc3)CC2)cc1 [Example 26] |  | 497 nM | 
CCCCCc1ccc(CN(Cc2ccc(C(F)(F)F)cc2)C2CCN(Cc3ccccc3)CC2)cc1 [Example 30] |  | 695 nM | 
CCCCCc1ccc(CN(Cc2ccc(-c3ccccc3)cc2)C2CCN(Cc3ccccc3)CC2)cc1 [Example 31] |  | 210 nM | 
CCCCCc1ccc(C(=O)N(Cc2ccc(-c3ccc(C#N)cc3)cc2)C2CCN(Cc3ccoc3)CC2)cc1 [Example 32] |  | 18 nM | 
CCCCCc1ccc(CN(Cc2ccc(-c3ccc(OCCO)cc3)cc2)C2CCN(Cc3ccccc3)CC2)cc1 [Example 33] |  | 96 nM | 
CCCCCc1ccc(C(=O)N(Cc2ccc(-c3ccccc3)cc2)[C@H]2CCN(Cc3ccccc3)C2)cc1 [Example 36] |  | 164 nM | 

Further lines, with some results ahead:

IC50 [2] | SMILES | IC50 [1] | other results
458 nM | CCCCCc1ccc(C(=O)N(Cc2ccc(OCc3ccccc3)cc2)C2CCCN(Cc3ccccc3)C2)cc1 (racemic) [Example 105, (rac.)-N-(4-Benzyloxybenzyl)-N-(1-benzylpiperidin-3-yl)-4-pentyl-benzamide] |  | 
19 nM | CCCCCc1ccc(C(=O)N(Cc2ccc(-c3ccc(OC)c(OC)c3)cc2)C2CCN(CC3=CCCCC3)CC2)cc1 [Example 38, N-(1-Cyclohex-1-enylmethyl-piperidin-4-yl)-N-(3′,4′-dimethoxybiphenyl-4-ylmethyl)-4-pentylbenzamide] |  | 
20 nM | CCCCCc1ccc(C(=O)N(Cc2ccc(-c3cccnc3)cc2)C2CCN(CCC(C)C)CC2)cc1 [Example 39, N-[1-(3-Methylbutyl)piperidin-4-yl]-4-pentyl-N-(4-pyridin-3-yl-benzyl)benzamide] |  | 
25 nM | CCCCCc1ccc(C(=O)N(Cc2ccc(-c3ccc(C#N)cc3)cc2)C2CCN(CC3=CCCCC3)CC2)cc1 [Example 40, N-(4′-Cyanobiphenyl-4-ylmethyl)-N-(1-cyclohex-1-enylmethyl-piperidin-4-yl)-4-pentylbenzamide] |  | 
25 nM | CCCCCc1ccc(C(=O)N(Cc2ccc(-c3ccc(OC)c(OC)c3)cc2)C2CCN(Cc3ccncc3)CC2)cc1 [Example 41, N-(3′,4′-Dimethoxybiphenyl-4-ylmethyl)-4-pentyl-N-(1-pyridin-4-ylmethylpiperidin-4-yl)benzamide] |  | 
28 nM | CCCCCc1ccc(C(=O)N(Cc2ccc(-c3ccc(C#N)cc3)cc2)C2CCN(Cc3ccncc3)CC2)cc1 [Example 42, N-(4′-Cyano-biphenyl-4-ylmethyl)-4-pentyl-N-(1-pyridin-4-ylmethylpiperidin-4-yl)benzamide] |  | 
31 nM | CCCCCc1ccc(C(=O)N(Cc2ccc(-c3ccc(OC)c(OC)c3)cc2)C2CCN(Cc3ccoc3)CC2)cc1 [Example 43, N-(3′,4′-Dimethoxybiphenyl-4-ylmethyl)-N-(1-furan-3-ylmethylpiperidin-4-yl)-4-pentylbenzamide] |  | 
39 nM | CCCCCc1ccc(C(=O)N(Cc2ccc(-c3ccc(OCCO)cc3)cc2)C2CCN(Cc3ccncc3)CC2)cc1 [Example 44, N-[4′-(2-Hydroxyethoxy)-biphenyl-4-ylmethyl]-4-pentyl-N-(1-pyridin-4-ylmethylpiperidin-4-yl)benzamide] |  | 
42 nM | CCCCCc1ccc(C(=O)N(Cc2ccc(-c3cccnc3)cc2)C2CCN(Cc3ccsc3)CC2)cc1 [Example 45, 4-Pentyl-N-(4-pyridin-3-yl-benzyl)-N-(1-thiophen-3-ylmethylpiperidin-4-yl)benzamide] |  | 
45 nM | CCCCCc1ccc(C(=O)N(Cc2ccc(-c3ccc(OC)c(OC)c3)cc2)C2CCN(Cc3cccnc3)CC2)cc1 [Example 46, N-(3′,4′-Dimethoxybiphenyl-4-ylmethyl)-4-pentyl-N-(1-pyridin-3-ylmethylpiperidin-4-yl)benzamide] |  | 
46 nM | CCCCCc1ccc(C(=O)N(Cc2ccc(-c3cccnc3)cc2)C2CCN(CC3CCCCC3)CC2)cc1 [Example 47, N-(1-Cyclohexylmethyl-piperidin-4-yl)-4-pentyl-N-(4-pyridin-3-yl-benzyl)benzamide] |  | 
48 nM | CCCCCc1ccc(C(=O)N(Cc2ccc(-c3ccc(OC)c(OC)c3)cc2)C2CCN(Cc3ccccc3)CC2)cc1 [Example 48, N-(1-Benzylpiperidin-4-yl)-N-(3′,4′-dimethoxybiphenyl-4-ylmethyl)-4-pentylbenzamide] |  | 
52 nM | CCCCCc1ccc(C(=O)N(Cc2ccc(-c3ccc4c(c3)OCO4)cc2)C2CCN(Cc3ccoc3)CC2)cc1 [Example 49, N-(4-Benzo[1,3]dioxol-5-yl-benzyl)-N-(1-furan-3-ylmethylpiperidin-4-yl)-4-pentylbenzamide] |  | 
54 nM | CCCCCc1ccc(C(=O)N(Cc2ccc(-c3ccc4c(c3)OCO4)cc2)C2CCN(Cc3ccncc3)CC2)cc1 [Example 50, N-(4-Benzo[1,3]dioxol-5-yl-benzyl)-4-pentyl-N-(1-pyridin-4-ylmethylpiperidin-4-yl)benzamide] |  | 
57 nM | CCCCCc1ccc(C(=O)N(Cc2ccc(-c3ccc(OCCO)cc3)cc2)C2CCN(Cc3ccoc3)CC2)cc1 [Example 51, N-(1-Furan-3-ylmethypiperidin-4-yl)-N-[4′-(2-hydroxyethoxy)biphenyl-4-ylmethyl]-4-pentylbenzamide] |  | 
58 nM | CCCCCc1ccc(C(=O)N(Cc2ccc(-c3ccc4c(c3)OCO4)cc2)C2CCN(Cc3ccccc3)CC2)cc1 [Example 52, N-(4-Benzo[1,3]dioxol-5-yl-benzyl)-N-(1-benzylpiperidin-4-yl)-4-pentylbenzamide] |  | 
61 nM | CCCCCc1ccc(C(=O)N(Cc2ccc(-c3ccccc3F)cc2)C2CCN(Cc3ccccc3)CC2)cc1 [Example 53, N-(1-Benzylpiperidin-4-yl)-N-(2′-fluorobiphenyl-4-ylmethyl)-4-pentylbenzamide] |  | 
64 nM | CCCCCc1ccc(C(=O)N(Cc2ccc(-c3cccnc3)cc2)C2CCN(Cc3ccoc3)CC2)cc1 [Example 54, N-(1-Furan-3-ylmethylpiperidin-4-yl)-4-pentyl-N-(4-pyridin-3-yl-benzyl)benzamide] |  | 
68 nM | CCCCCc1ccc(C(=O)N(Cc2ccc(-c3ccc(C#N)cc3)cc2)C2CCN(Cc3cccnc3)CC2)cc1 [Example 55, N-(4′-Cyanobiphenyl-4-ylmethyl)-4-pentyl-N-(1-pyridin-3-ylmethylpiperidin-4-yl)benzamide] |  | 
71 nM | CCCCCc1ccc(C(=O)N(Cc2ccc(-c3ccccc3)cc2)C2CCN(Cc3ccc(OC)cc3)CC2)cc1 [Example 56, N-Biphenyl-4-ylmethyl-N-[1-(4-methoxybenzyl)piperidin-4-yl]-4-pentylbenzamide] |  | 
75 nM | CCCCCc1ccc(C(=O)N(Cc2ccc(-c3ccc4c(c3)OCO4)cc2)C2CCN(CC3=CCCCC3)CC2)cc1 [Example 57, N-(4-Benzo[1,3]dioxol-5-yl-benzyl)-N-(1-cyclohex-1-enylmethyl-piperidin-4-yl)-4-pentyl-benzamide] |  | 
79 nM | CCCCCc1ccc(C(=O)N(Cc2ccc(OCc3ccc(F)cc3)cc2)C2CCN(Cc3ccccc3)CC2)cc1 [Example 58, N-(1-Benzyl-piperidin-4-yl)-N-[4-(4-fluoro-benzyloxy)-benzyl]-4-pentyl-benzamide] |  | 
81 nM | CCCCCc1ccc(C(=O)N(Cc2ccc(-c3ccc(C#N)cc3)cc2)C2CCN(Cc3ccccc3)CC2)cc1 [Example 59, N-(1-Benzyl-piperidin-4-yl)-N-(4′-cyano-biphenyl-4-ylmethyl)-4-pentyl-benzamide] |  | 
87 nM | CCCCCc1ccc(C(=O)N(Cc2ccc(-c3ccccc3F)cc2)C2CCN(Cc3ccoc3)CC2)cc1 [Example 60, N-(2′-Fluorobiphenyl-4-ylmethyl)-N-(1-furan-3-ylmethylpiperidin-4-yl)-4-pentylbenzamide] |  | 
